Source: article PMC9854762, “Antibiofilm and Anti-Quorum-Sensing Activities of Novel Pyrazole and Pyrazolo[1,5-a]pyrimidine Derivatives as Carbonic Anhydrase I and II Inhibitors: Design, Synthesis, Radiosterilization, and Molecular Docking Studies” (Antibiotics, 2023)
Converted amounts (≈) assume the structure as drawn. Read-outs that look alike come from different tables or passages of the source.

Assays:
E. coli DH-5987 [1] = assay: Broth microdilution MIC/MBC; format: cell-based, Escherichia coli; conditions: E. coli DH-5987; for MBC/MIC: value in brackets; for MIC: Escherichia coli, DH5987, 24 h, read-out: MIC (Mean ± SEM)
Procedure: (§1) The broth microdilution method was taken as a basis to detect the MICs of pyrazole compounds against tested clinical isolates, according to the Clinical Laboratory and Standards Institute guidelines. The broth cultures were used to prepare the bacterial inoculums, and the suspensions were adjusted to the standard 0.5 McFarland turbidity. Stock solutions of the synthesized pyrazoles were prepared in pure DMSO and further serially diluted with TS broth in the concentration range from 128 µg/mL to 0.0625 µg/mL. A well containing noninoculated TS broth, free of any antimicrobial agents, was also included to ensure the medium sterility, while Erythromycin and Amikacin served as positive controls. Bacterial growth was determined by adding 20 µL of 0.5% TTC (2,3,5-triphenyltetrazolium chloride) aqueous solution. […] All experiments were repeated three times. The bactericidal effect from each concentration of the pyrazole and pyrazolo[1,5-a]pyrimidine derivatives showing growth inhibition was further studied. For this study, a loopful of 5 µL was taken from each no-visible growth tube and streaked onto plates of TS agar.

P. aeruginosa DH-5698 [2] = assay: Agar well-diffusion assay; format: cell-based, Pseudomonus aeruginosa; conditions: Pseudomonas aeruginosa, DH5698; P. aeruginosa DH-5698; 50 µL of 10 mM per well; read-out: Diameter of Inhibition Zones (AZOI)
Procedure: (§2) The synthesized compounds were initially screened for their in vitro antibacterial activity against the different Gram-positive and Gram-negative bacteria, tested using the agar well-diffusion assay. The turbidity of the bacterial suspensions was established to the 0.5 McFarland turbidity standard. The activity was performed on TS agar plates. The bacteria were spread on the surface of the agar plates, and 10 mm wells were screwed into the agar plates. The assay was performed under aseptic conditions. An aliquot of 50 µL of each tested compound (10 mM) was added to the wells, and the plates were incubated overnight at 37 °C. Both Erythromycin and Amikacin antibiotic disks were used as positive control, while DMSO solvent was used as a negative control in this study. The diameters of inhibition zones were measured and recorded in mm. A comparative study of the synthesized compounds was determined. The experiment was performed in triplicates.

S. aureus DH-432 [3] = assay: Broth microdilution MIC/MBC; format: cell-based, Staphylococcus aureus; conditions: for MIC: Staphylococcus aureus, DH432, 24 h, read-out: MIC (Mean ± SEM); for MBC/MIC: value in brackets
Procedure: as §1

E. faecalis DH-5478 [4] = assay: Broth microdilution MIC/MBC; format: cell-based, Enterococcus faecalis; conditions: for MIC: Enterococcus faecalis, DH5478, 24 h, read-out: MIC (Mean ± SEM); for MBC/MIC: value in brackets
Procedure: as §1

E. coli DH-5987 [5] = assay: Agar well-diffusion assay; format: cell-based; conditions: Escherichia coli, DH5987, 50 µL of 10 mM per well, read-out: Diameter of Inhibition Zones (AZOI)
Procedure: as §2

A. baumannii DH-243 [6] = assay: Agar well-diffusion assay; format: cell-based; conditions: Acinetobacter baumannii, DH243; A. baumannii DH-243; 50 µL of 10 mM per well; read-out: Diameter of Inhibition Zones (AZOI)
Procedure: as §2

S. aureus DH-432 [7] = assay: Agar well-diffusion assay; format: cell-based; conditions: Staphylococcus aureus
Procedure: as §2

E. faecalis DH-5478 [8] = assay: Agar well-diffusion assay; format: cell-based; conditions: Enterococcus faecalis
Procedure: as §2

S. pyogenes DH-3467 [9] = assay: Agar well-diffusion assay; format: cell-based; conditions: Streptococcus pyogenes
Procedure: as §2

A. baumannii DH-243 [10] = assay: Broth microdilution MIC/MBC; format: cell-based, Acinetobacter baumannii; conditions: for MIC: Acinetobacter baumannii, DH243, 24 h, read-out: MIC (Mean ± SEM); for MBC/MIC: value in brackets
Procedure: as §1

P. aeruginosa DH-5698 [11] = assay: Broth microdilution MIC/MBC; format: cell-based, Pseudomonus aeruginosa; conditions: for MIC: Pseudomonas aeruginosa, DH5698, 24 h, read-out: MIC (Mean ± SEM); for MBC/MIC: value in brackets
Procedure: as §1

S. pyogenes DH-3467 [12] = assay: Broth microdilution MIC/MBC; format: cell-based, Streptococcus pyogenes; conditions: for MIC: Streptococcus pyogenes, DH3467, 24 h, read-out: MIC (Mean ± SEM); for MBC/MIC: value in brackets
Procedure: as §1

Gram-positive isolates = assay: Broth microdilution MIC/MBC, summary; format: cell-based; conditions: Gram-positive isolates (E. faecalis, S. aureus, S. pyogenes)
Procedure: as §1

[13] = DH432, S. aureus DH-432, 50 µL of 10 mM per well, read-out: Diameter of Inhibition Zones (AZOI)
[14] = DH5478, E. faecalis DH-5478, 50 µL of 10 mM per well, read-out: Diameter of Inhibition Zones (AZOI)
[15] = DH3467, S. pyogenes DH-3467, 50 µL of 10 mM per well, read-out: Diameter of Inhibition Zones (AZOI)

| Compound | MBC/MIC (E. coli DH-5987 [1]) | MIC (E. coli DH-5987 [1]) | zone of inhibition at 10000 µM (P. aeruginosa DH-5698 [2]) | MIC (S. aureus DH-432 [3]) | MBC/MIC (S. aureus DH-432 [3]) | MIC (E. faecalis DH-5478 [4]) | MBC/MIC (E. faecalis DH-5478 [4]) | zone of inhibition at 10000 µM (E. coli DH-5987 [5]) | zone of inhibition at 10000 µM (A. baumannii DH-243 [6]) | zone of inhibition at 10000 µM (S. aureus DH-432 [7]; [13]) | zone of inhibition at 10000 µM (E. faecalis DH-5478 [8]; [14]) | zone of inhibition at 10000 µM (S. pyogenes DH-3467 [9]; [15]) | melting point | MIC (A. baumannii DH-243 [10]) | MBC/MIC (A. baumannii DH-243 [10]) | MIC (P. aeruginosa DH-5698 [11]) | MBC/MIC (P. aeruginosa DH-5698 [11]) | MIC (S. pyogenes DH-3467 [12]) | MBC/MIC (S. pyogenes DH-3467 [12]) | further results |
| --- | --- | --- | --- | --- | --- | --- | --- | --- | --- | --- | --- | --- | --- | --- | --- | --- | --- | --- | --- | --- |
| CCOC(=O)c1ccc(N=Nc2c(N)nn(-c3ccccc3)c2N)cc1 [Compound 3b, Ethyl 4-((3,5-diamino-1-phenyl-1H-pyrazol-4-yl)diazenyl)benzoate] | 1 | 0.5 ± 0.2 µg/mL (≈ 1.43 µM) | 25.1 mm | 0.5 ± 0.1 µg/mL (≈ 1.43 µM) | 1 | 0.75 ± 0.2 µg/mL (≈ 2.14 µM) | 0.5 | 26.9 mm | 23.1 mm | 25.2 mm | 24.4 mm | 24.7 mm | 144 to 146 °C | 1 ± 0.3 µg/mL (≈ 2.85 µM) | 0.5 | 1 ± 0.2 µg/mL (≈ 2.85 µM) | 0.5 | 0.75 ± 0.4 µg/mL (≈ 2.14 µM) | 1 |  |
| CCOC(=O)c1ccc(N=Nc2c(N)nn3c(-c4cccs4)cc(-c4ccccc4)nc23)cc1 [Compound 8a, Ethyl-4-((2-amino-5-phenyl-7-(thiophen-2-yl)pyrazolo[1,5-a]pyrimidin-3-yl)diazenyl)benzoate] | 1 | 2 ± 0.2 µg/mL (≈ 4.27 µM) | 21.6 mm | 2 ± 0.2 µg/mL (≈ 4.27 µM) | 1 | 4 ± 0.3 µg/mL (≈ 8.54 µM) | 1 | 23.4 mm | 19.7 mm | 22 mm | 20.6 mm | 21.4 mm | 200 to 202 °C | 4 ± 0.2 µg/mL (≈ 8.54 µM) | 2 | 2 ± 0.3 µg/mL (≈ 4.27 µM) | 1 | 4 ± 0.4 µg/mL (≈ 8.54 µM) | 1 |  |
| CC[C@H]1OC(=O)[C@H](C)[C@@H](O[C@H]2C[C@@](C)(OC)[C@@H](O)[C@H](C)O2)[C@H](C)[C@@H](O[C@@H]2O[C@H](C)C[C@H](N(C)C)[C@H]2O)[C@](C)(O)C[C@@H](C)C(=O)[C@H](C)[C@@H](O)[C@]1(C)O [E, Erythromycin, reference compound] |  |  |  | 8 ± 0.2 µg/mL (≈ 10.9 µM) | 2 | 32 ± 0.1 µg/mL (≈ 43.6 µM) | 4 |  |  |  |  |  |  |  |  |  |  | 64 ± 0.3 µg/mL (≈ 87.2 µM) | 2 | MBC (Gram-positive isolates; read-out: MBC): 16 to 128 µg/mL (≈ 21.8 to 174 µM); MIC (Gram-positive isolates; read-out: MIC): 8 to 64 µg/mL (≈ 10.9 to 87.2 µM); zone of inhibition at 10000 µM (S. aureus DH-432 [7]; DH432, read-out: Diameter of Inhibition Zones (AZOI)): 12 mm; zone of inhibition at 10000 µM (E. faecalis DH-5478 [8]; DH5478, read-out: Diameter of Inhibition Zones (AZOI)): 11 mm; zone of inhibition at 10000 µM (S. pyogenes DH-3467 [9]; DH3467, read-out: Diameter of Inhibition Zones (AZOI)): 10.5 mm |
| CCOC(=O)c1ccc(N=Nc2c(N)nn3c(-c4ccco4)cc(-c4ccccc4)nc23)cc1 [Compound 8b, Ethyl 4-((2-amino-7-(furan-2-yl)-5-phenylpyrazolo[1,5-a]pyrimidin-3-yl)diazenyl)benzoate] | 1 | 2 ± 0.3 µg/mL (≈ 4.42 µM) | 18.4 mm | 4 ± 0.3 µg/mL (≈ 8.84 µM) | 2 | 4 ± 0.1 µg/mL (≈ 8.84 µM) | 2 | 20.1 mm | 16.5 mm | 19.5 mm | 17.3 mm | 18.7 mm | 212 to 214 °C | 8 ± 0.2 µg/mL (≈ 17.7 µM) | 2 | 4 ± 0.1 µg/mL (≈ 8.84 µM) | 2 | 8 ± 0.2 µg/mL (≈ 17.7 µM) | 1 |  |
